According to the CheMixHub viscosity set:
“And” between values parts separate entries of the source, which are not always exact repeats. Equal values may be shown once.

C1CCOC1
Conditions | viscosity
293.15 K, 101.33 kPa | 0.48 mPa·s
298 K, 101 kPa | 0.4608 mPa·s
298 K, 101.33 kPa | 0.461 mPa·s
298.15 K, 101.33 kPa | 0.53 mPa·s and 0.481 mPa·s and 0.472 mPa·s
303 K, 101 kPa | 0.42 mPa·s and 0.42 mPa·s
303 K, 101.3 kPa | 0.422 mPa·s
303.15 K, 101.32 kPa | 0.449 mPa·s
303.15 K, 101.33 kPa | 0.4496 mPa·s and 0.45 mPa·s and 0.45 mPa·s
308 K, 101.33 kPa | 0.42 mPa·s
313 K, 101 kPa | 0.39 mPa·s and 0.39 mPa·s
313 K, 101.3 kPa | 0.402 mPa·s
313.15 K, 100 kPa | 0.39 mPa·s
313.15 K, 101.33 kPa | 0.4066 mPa·s
323.15 K, 101.33 kPa | 0.3696 mPa·s

CC(C)CC(=O)O
101.33 kPa
Conditions | viscosity [mPa·s]
293.15 K | 2.411
313.15 K | 1.672

CC(C)C[P+](C)(CC(C)C)CC(C)C.Cc1ccc(S(=O)(=O)[O-])cc1
Conditions | viscosity [mPa·s]
293.15 K, 101 kPa | 1320

CC1COC(=O)O1 (centres undefined)
viscosity
Conditions | 293.15 K | 298.15 K | 303.15 K | 308.15 K | 313.15 K | 318.15 K | 323.15 K
99.7 kPa | – | – | 2.212 mPa·s | – | 1.998 mPa·s | – | 1.766 mPa·s
100 kPa | – | 2.53 mPa·s | – | – | – | – | –
101 kPa | 2.938 mPa·s and 2.738 mPa·s and 2.72 mPa·s | 2.531 mPa·s and 2.468 mPa·s and 2.51 mPa·s | 2.24 mPa·s and 2.3 mPa·s and 2.29 mPa·s | – | – | 1.654 mPa·s and 1.724 mPa·s and 1.85 mPa·s | 1.538 mPa·s and 1.595 mPa·s
101.3 kPa | 2.746 mPa·s and 2.763 mPa·s and 2.762 mPa·s | – | 2.246 mPa·s and 2.3 mPa·s and 2.149 mPa·s | 2.049 mPa·s and 2.046 mPa·s | 1.879 mPa·s and 1.902 mPa·s | 1.73 mPa·s and 1.755 mPa·s and 1.703 mPa·s | 1.6 mPa·s
101.33 kPa | 2.721 mPa·s | – | 2.237 mPa·s | – | 1.863 mPa·s | – | –

CCCC(=O)[O-].OCC[NH2+]CCO
101.3 kPa
Conditions | viscosity [mPa·s]
293.15 K | 1832
298.15 K | 1226
303.15 K | 839.8
308.15 K | 588.7
313.15 K | 421.1
318.15 K | 307.1
323.15 K | 227.9

CCCc1ccccc1
Conditions | viscosity [mPa·s]
303.15 K, 101 kPa | 0.7591
303.15 K, 101.3 kPa | 0.75
308.15 K, 101.33 kPa | 0.7001
313.15 K, 102 kPa | 0.649
323.15 K, 102 kPa | 0.573

CCOCCn1cc[n+](C)c1.C[C@@H](O)[C@H](N)C(=O)[O-]
100 kPa
Conditions | viscosity [mPa·s]
298.15 K | 1133
303.15 K | 730.3
308.15 K | 438.8
313.15 K | 312.5
318.15 K | 206.8
323.15 K | 153.8

CCOCCn1cc[n+](CCC#N)c1.O=S(=O)([N-]S(=O)(=O)C(F)(F)F)C(F)(F)F
101.33 kPa
Conditions | viscosity [mPa·s]
293.15 K | 401.1
303.15 K | 235.6
313.15 K | 146.2
323.15 K | 105

COc1ccccc1
Conditions | viscosity
293.15 K, 101.33 kPa | 1.05 mPa·s and 1.143 mPa·s
298.15 K, 101 kPa | 0.9912 mPa·s and 1 mPa·s and 0.9785 mPa·s
298.15 K, 101.3 kPa | 0.99 mPa·s and 0.991 mPa·s
303 K, 100 kPa | 0.9804 mPa·s
303 K, 101 kPa | 0.9804 mPa·s
303 K, 101.3 kPa | 0.981 mPa·s
303.15 K, 100 kPa | 0.923 mPa·s
303.15 K, 101.3 kPa | 0.916 mPa·s and 0.915 mPa·s and 0.923 mPa·s
308.15 K, 101 kPa | 0.856 mPa·s and 0.856 mPa·s and 0.8422 mPa·s
313 K, 100 kPa | 0.7623 mPa·s
313 K, 101 kPa | 0.7623 mPa·s
313.15 K, 100 kPa | 0.764 mPa·s
318.15 K, 101 kPa | 0.745 mPa·s and 0.745 mPa·s
318.15 K, 101.33 kPa | 0.739 mPa·s
323 K, 100 kPa | 0.6146 mPa·s
323 K, 101 kPa | 0.6146 mPa·s
323.15 K, 101 kPa | 0.692 mPa·s and 0.692 mPa·s and 0.72 mPa·s
323.15 K, 101.33 kPa | 0.691 mPa·s and 0.691 mPa·s and 0.69 mPa·s

C[N+](C)(C)CCO.O=S(=O)([N-]S(=O)(=O)C(F)(F)F)C(F)(F)F
101 kPa
Conditions | viscosity [mPa·s]
298.15 K | 144.8
313.15 K | 56.44
318.15 K | 46.77
323.15 K | 39.28

Cc1ccccc1
Conditions | viscosity
293.15 K, 100 kPa | 0.598 mPa·s
293.15 K, 101.2 kPa | 0.6003 mPa·s
293.15 K, 101.32 kPa | 0.5859 mPa·s
293.15 K, 101.33 kPa | 0.592 mPa·s
295.85 K, 101.33 kPa | 0.5984 mPa·s
298 K, 101.33 kPa | 0.546 mPa·s
298.15 K, 100 kPa | 0.551 mPa·s
298.15 K, 101.33 kPa | 0.506 mPa·s
302.4 K, 101 kPa | 0.9538 mPa·s
303 K, 100 kPa | 0.5268 mPa·s
303 K, 101.33 kPa | 0.514 mPa·s and 0.515 mPa·s
303.15 K, 100 kPa | 0.539 mPa·s
303.15 K, 101.2 kPa | 0.5357 mPa·s
303.15 K, 101.3 kPa | 0.5272 mPa·s
305.45 K, 101.33 kPa | 0.5375 mPa·s
308 K, 100 kPa | 0.4984 mPa·s
308.15 K, 100 kPa | 0.498 mPa·s
308.15 K, 101.2 kPa | 0.5069 mPa·s
308.15 K, 101.3 kPa | 0.492 mPa·s and 0.4981 mPa·s and 0.503 mPa·s
308.5 K, 101 kPa | 0.512 mPa·s
312.65 K, 101.33 kPa | 0.4982 mPa·s
313 K, 100 kPa | 0.4811 mPa·s
313 K, 101.33 kPa | 0.463 mPa·s and 0.461 mPa·s
313.15 K, 100 kPa | 0.495 mPa·s
313.15 K, 101 kPa | 0.4601 mPa·s and 0.4804 mPa·s and 0.559 mPa·s
313.15 K, 101.2 kPa | 0.4807 mPa·s
313.15 K, 101.33 kPa | 0.478 mPa·s and 0.478 mPa·s and 0.481 mPa·s
318.15 K, 100 kPa | 0.44 mPa·s
318.15 K, 101.2 kPa | 0.4571 mPa·s
318.15 K, 101.32 kPa | 0.4428 mPa·s
318.15 K, 101.33 kPa | 0.458 mPa·s
322.65 K, 101.33 kPa | 0.45 mPa·s
323 K, 101.33 kPa | 0.413 mPa·s and 0.418 mPa·s
323.15 K, 101 kPa | 0.4435 mPa·s and 0.418 mPa·s and 0.4321 mPa·s

O=C(O)CBr
Conditions | viscosity [mPa·s]
323.15 K, 101 kPa | 3.65
